From patent US20040014140A1, “Methods for identifying allosteric sites” (priority 2002, published 2004)

Columns and labels:
caspase-9 = test: Tethering experiments with caspase-9; set-up: species or system human; settings: binding to the small subunit, cysteine corresponding to Ile-265 in caspase-3
Description: This example describes one embodiment of a tethering experiment using caspase-3 or cysteine mutants thereof. […] Reactions were allowed to proceed to equilibrium (≧1 hour) before being analyzed by mass spectrometry. The reaction mixture was loaded onto a Finnegan LCQ2 or LCQ3 LCMS, with each run taking 2-5 minutes, depending upon the separation procedure. After deconvolution, the large and/or small subunits were identified based upon their known molecular weight.

[1] = tested on: mutant PTP-1B where Asn-193 is mutated to alanine, Phe-196 is mutated to arginine, and Phe-280 is mutated to cysteine; test: Inhibition of allosterically disabled mutant PTP-1B; format: biochemical, human; settings: N193A, F196R, F280C mutant; allosteric mechanism disabled
Text: The importance of allosteric forming residues, Asn-193, Phe-196, and Phe-280 has been confirmed in part using mutagenesis experiments.
PTP-1B[321; N193A; F196R; F280C] was generated by joining an NdeI-PstI fragment from PTP-IB[321; N193A; F196R], corresponding to residues 1-215, with a PstI-EcoRI fragment from PTP-1B[321; F280C], corresponding to residues 216-321.
PTP-1B[298; N193A; F196R; F280C] was generated by PCR using PTP-1B[321; N193A; F196R; F280C] as a template. T7 vector primer was used as forward primer and truncation at residue 298 was generated using the primer 5′-[…] (SEQ ID. NO. 22).

SMILES | selection in tethering experiments (caspase-9) | inhibition of mutant PTP-1B [1]
O=C(O)c1ccc(Oc2ccccc2)cc1 [compound 8] | selected | 
CCc1oc2cc(S(=O)(=O)Nc3ccc(S(N)(=O)=O)cc3)ccc2c1C(=O)c1cc(Br)c(O)c(Br)c1 [compound 15] |  | no longer capable of inhibiting the enzyme
